Measured values reported in patent US11471452B2, “Compositions and methods for treating or preventing vasomotor symptoms” (Mitsubishi Tanabe Pharma Corporation, priority 2017, dated 2022).

Legend:
[1] = test system: female subjects experiencing Vasomotor Symptoms (VMS); experiment: Phase Ib study: core body temperature assessment, change from baseline within 24 hours post-dose; type: in vivo, human; conditions: 5 mg administered group, within 24 hours post-dose on Visit Day 1 or 7; like placebo, in comparison with 20 mg and 50 mg groups
Text: (§1) Study Design: This was a Phase Ib, randomized, double blind, placebo controlled study. The study design is illustrated in FIG. 1. Following the initial Screening visit, eligible subjects was given an actigraphy event monitor (watch) to record episodes of flashing as Vasomotor symptoms (VMS) events during a period of 2 weeks during Screening, in order to confirm VMS eligibility criteria (≥7 VMS/day on average during 2 weeks). Subjects may be required to return to the site during the Screening period to read or exchange the actigraphy event monitor. Subjects deemed eligible following review of VMS data were invited to attend the Clinical research unit (CRU) for one residential period of 16 days duration, including 14 days of Investigational Medicinal Product (IMP) administration. Subjects were admitted to the CRU 1 day prior to dosing (Day-1). No medication was administered on Day-1. On Day 1, subjects who meet the study eligibility criteria were randomized to receive one dose level of either Compound A (6 subjects) or a matching placebo (2 subjects) in a double-blind manner. Randomized treatment was administered once nightly, starting on Day 1, for a total duration of 14 days.
The anticipated dose levels of Compound A to be administered are 50 mg for Cohort 1, 20 mg for Cohort 2 and 5 mg for Cohort 3. […]

[2] = test system: female subjects experiencing Vasomotor Symptoms (VMS); experiment: Phase Ib study: frequency of vasomotor symptoms (VMS), moderate and severe VMS counted, 14 days once nightly dosing; type: in vivo, human; design: Mean Observed Value in VMS frequency: unit not given here
Text: as §1
The anticipated dose levels of Compound A to be administered are 50 mg for Cohort 1, 20 mg for Cohort 2 and 5 mg for Cohort 3. Progression to the next dose level and selection of the dose to be administered in Cohort 2 and Cohort 3 is based on emerging safety and tolerability data and available core body temperature data from the preceding dose cohort. If the dose escalation stopping criteria are met, then the dose for the subsequent cohort is reduced. […] The three cohorts are dosed sequentially with a fourth additional cohort being dosed, if necessary, to investigate other dose levels.
Five (5) mg of Compound A was administered to the female subjects experiencing Vasomotor Symptoms (VMS), and as the above-mentioned assessments, a Frequency of VMS and a Core body temperature assessment were examined.
Here a moderate VMS and a severe VMS were counted as a VMS frequency.

O=C(O)c1ccc(S(=O)(=O)N(Cc2ccc(OC(F)(F)F)cc2)c2ncc3ccccc3c2C2CC2)cc1 [Compound A, 4-({(4-cyclopropylisoquinolin-3-yl)[4-(trifluoromethoxy)benzyl]amino}sulfonyl)benzoic acid]
Change from baseline in core body temperature [1]: no significant reduced the core body temperature | Effect on frequency of VMS versus placebo (FIG. 2) ([2]; 5 mg once nightly, 14 days of treatment): reduced the frequency of VMS significantly | Onset of the reduction effect of VMS frequency ([2]; 5 mg, shown during the first night of active drug therapy or later, within a few days, compared to estrogen or Paroxetine): immediate effect | Mean Observed Value in VMS frequency ([2]; Baseline, 5 mg Compound A group, moderate and severe VMS counted): 14.5 | Mean Observed Value in VMS frequency ([2]; Day 1, 5 mg once nightly): 9.7 | Mean Observed Value in VMS frequency ([2]; Day 2, 5 mg once nightly): 7.2 | Mean Observed Value in VMS frequency ([2]; Day 3, 5 mg once nightly): 6.3 | Mean Observed Value in VMS frequency ([2]; Day 4, 5 mg once nightly): 5.3 | Mean Observed Value in VMS frequency ([2]; Day 5, 5 mg once nightly): 8.0 | Mean Observed Value in VMS frequency ([2]; Day 6, 5 mg once nightly): 6.3 | Mean Observed Value in VMS frequency ([2]; Day 7, 5 mg once nightly): 4.7 | Mean Observed Value in VMS frequency ([2]; Day 8, 5 mg once nightly): 3.7 | Mean Observed Value in VMS frequency ([2]; Day 9, 5 mg once nightly): 4.5 | Mean Observed Value in VMS frequency ([2]; Day 10, 5 mg once nightly): 3.2 | Mean Observed Value in VMS frequency ([2]; Day 11, 5 mg once nightly): 3.7 | Mean Observed Value in VMS frequency ([2]; Day 12, 5 mg once nightly): 3.2 | Mean Observed Value in VMS frequency ([2]; Day 13, 5 mg once nightly): 3.2 | Mean Observed Value in VMS frequency ([2]; Day 14, 5 mg once nightly): 4.8
